Assay results reported in PubChem BioAssay (NCI).
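GI50 = concentration required for 50% inhibition of growth. The concentration for full growth arrest is given as TGI.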

Legend:
Experiment in all cases: DTP human tumour cell line panel, 384-well format
[1] = tested on: MOLT-4 leukemia
[2] = tested on: NCI-H226 lung
[3] = tested on: CAKI-1 renal
[4] = tested on: HS 578T breast
[5] = tested on: MCF7 breast
[6] = tested on: HCC-2998 colon
[7] = tested on: OVCAR-5 ovarian
[8] = tested on: SN12C renal
[9] = tested on: CCRF-CEM leukemia
[10] = tested on: HOP-62 NSCLC
[11] = tested on: HL-60(TB) leukemia
[12] = tested on: NCI-H322M lung
[13] = tested on: MDA-MB-468 breast
[14] = tested on: BT-549 breast
[15] = tested on: SF-295 CNS
[16] = tested on: U251 glioblastoma
[17] = tested on: A498 renal
[18] = tested on: TK-10 renal
[19] = tested on: SK-MEL-2 melanoma
[20] = tested on: SF-539 CNS
[21] = tested on: OVCAR-3 ovarian
[22] = tested on: SK-OV-3 ovarian
[23] = tested on: SK-MEL-28 melanoma
[24] = tested on: MALME-3M melanoma
[25] = tested on: NCI-H460 NSCLC
[26] = tested on: NCI-H23 lung
[27] = tested on: SNB-19 CNS
[28] = tested on: SK-MEL-5 melanoma
[29] = tested on: UO-31 renal
[30] = tested on: T-47D breast
[31] = tested on: MDA-MB-231 breast
[32] = tested on: HOP-92 NSCLC
[33] = tested on: HCT-15 colon
[34] = tested on: COLO 205 colon
[35] = tested on: HT29 colon
[36] = tested on: RPMI-8226 leukemia
[37] = tested on: PC-3 prostate
[38] = tested on: M14 melanoma
[39] = tested on: LOX IMVI melanoma
[40] = tested on: A549 NSCLC
[41] = tested on: DU-145 prostate
[42] = tested on: KM12 colon
[43] = tested on: UACC-62 melanoma
[44] = tested on: OVCAR-4 ovarian
[45] = tested on: MDA-MB-435 melanoma
[46] = tested on: SW-620 colon
[47] = tested on: SNB-75 CNS

SMILES: CC(F)(F)c1cc(F)ccc1-c1sc2cc(O)ccc2c1Oc1ccc(/C=C/C(=O)O)cc1
- GI50 [1]: 13.3 µM
- TGI [1]: 26.1 µM
- GI50 [2]: 20 µM
- TGI [2]: 40.3 µM
- GI50 [3]: 15.1 µM
- TGI [3]: 29.9 µM
- GI50 [4]: 10.2 µM
- TGI [4]: 22 µM
- TGI [5]: 14 µM
- GI50 [6]: 18.2 µM
- TGI [6]: 32.3 µM
- GI50 [7]: 18.2 µM
- TGI [7]: 33.6 µM
- GI50 [8]: 20.1 µM
- TGI [8]: 40.5 µM
- GI50 [9]: 12.6 µM
- TGI [9]: 25.2 µM
- GI50 [10]: 9.88 µM
- TGI [10]: 21.8 µM
- GI50 [11]: 14.6 µM
- TGI [11]: 27.8 µM
- GI50 [12]: 14.4 µM
- TGI [12]: 33.6 µM
- GI50 [13]: 11.7 µM
- TGI [13]: 26.6 µM
- GI50 [14]: 12.8 µM
- TGI [14]: 26.7 µM
- GI50 [15]: 7.72 µM
- TGI [15]: 21.6 µM
- GI50 [16]: 12.6 µM
- TGI [16]: 25.3 µM
- GI50 [17]: 13.3 µM
- TGI [17]: 29.1 µM
- GI50 [18]: 22.9 µM
- TGI [18]: 61.6 µM
- GI50 [19]: 13.6 µM
- TGI [19]: 28.9 µM
- GI50 [20]: 15.8 µM
- TGI [20]: 29.8 µM
- GI50 [21]: 12.6 µM
- TGI [21]: 25.8 µM
- GI50 [22]: 20.2 µM
- TGI [22]: 43.5 µM
- GI50 [23]: 11.5 µM
- TGI [23]: 32.9 µM
- GI50 [24]: 13.5 µM
- TGI [24]: 27.8 µM
- GI50 [25]: 17.6 µM
- TGI [25]: 31.8 µM
- GI50 [26]: 16.3 µM
- TGI [26]: 30.7 µM
- GI50 [27]: 12.7 µM
- TGI [27]: 25.6 µM
- GI50 [28]: 12.2 µM
- TGI [28]: 24.7 µM
- GI50 [29]: 12.4 µM
- TGI [29]: 26.3 µM
- GI50 [30]: 11.2 µM
- TGI [30]: 25.9 µM
- GI50 [31]: 15.7 µM
- TGI [31]: 29.5 µM
- GI50 [32]: 16.1 µM
- TGI [32]: 35.3 µM
- GI50 [33]: 11.3 µM
- TGI [33]: 24 µM
- GI50 [34]: 16.5 µM
- TGI [34]: 31.7 µM
- GI50 [35]: 16.2 µM
- TGI [35]: 31.4 µM
- GI50 [36]: 11 µM
- TGI [36]: 23.2 µM
- GI50 [37]: 13.9 µM
- TGI [37]: 28.1 µM
- GI50 [38]: 11.6 µM
- TGI [38]: 25.8 µM
- GI50 [39]: 13.5 µM
- TGI [39]: 26.7 µM
- GI50 [40]: 13.8 µM
- TGI [40]: 31.2 µM
- GI50 [41]: 17.4 µM
- TGI [41]: 42.3 µM
- GI50 [42]: 12.7 µM
- TGI [42]: 25.5 µM
- GI50 [43]: 9.94 µM
- TGI [43]: 21.6 µM
- GI50 [44]: 19.5 µM
- TGI [44]: 74.9 µM
- GI50 [45]: 3.24 µM
- TGI [45]: 12.8 µM
- GI50 [46]: 16.9 µM
- TGI [46]: 30.9 µM
- GI50 [47]: 15.5 µM
- TGI [47]: 33 µM
